Molecules are shown by their SMILES.

This passage reports Ki and inhibition results from patent publication US20050026836A1, “Composition for the treatment of damaged tissue” (priority 1999, published 2005).

What all share (assay type): biochemical
Test [1] deals with catalytic domain of human MMP-2 (Homo sapiens, UniProt P08253). In words: MMP-2 fluorogenic inhibition assay. The following applies: read-out: Calculated Ki(nM) MMP-2. The protocol: (§1) All enzymes were pre-activated at 37° C. with aminophenylmercuric acetate (APMA) or trypsin before being made up to the final concentrations used in the assay.
(§2) For MMP-1, the assay buffer used was 50 mM Tris, 200 mM NaCl, 5 mM CaCl2, 20 μM ZnCl2, 0.05% (w/v) Brij 35, pH 7.5. […] For MMP-13, the assay buffer used was 50 mM Tris, pH 7.5, 200 mM NaCl, 5 mM CaCl2, […] and 0.02% (w/v) Brij 35.
MMP-2, MMP-3 and MMP-9 inhibition was assayed by incubating activated catalytic domain of human MMP-2, MMP-3 and MMP-9 at 1 nM in assay buffer with 5 μM substrate Mca-Arg-Pro-Lys-Pro-Tyr-Ala-Nva-Trp-Met-Lys(Dnp)-NH2, and six different concentrations of inhibitor. The incubation was performed at 37° C. for 60 minutes.
For MMP-2, the final assay concentrations of inhibitors used were 1000, 800, 600, 400, 200 and 100 nM. For MMP-3, the final assay concentrations of inhibitors used were 5, 4, 3, 2, 1 and 0.5 nM. For MMP-9 and MMP-14, the final assay concentrations of inhibitors used were 5, 4, 3, 2, 1 and 0.5 μM.
All assays were carried out in a black 96-well plate with a final volume of 100 μl in each well. Inhibitors were dissolved in dimethylsulphoxide (DMSO) to 1 mM. Solutions were then serially diluted in buffer to give the final concentrations shown. […]

Test [2] addresses T1, MMP-13 (Homo sapiens, UniProt P45452).
T1 construct: made in house
In words: MMP-13 fluorogenic inhibition assay. Particulars: estimated from IC50; read-out: Calculated Ki(nM) MMP-13. The protocol:
as §1, §2
Assays were carried out in 96-well microfluor plates. All incubations were performed at 37° C. and fluorescence readings determined at 360 nm γex and 450 nm γem.
For the assay, the fluorescence values at time zero were subtracted from those determined at 15 or 20 minutes. The % response was then calculated by comparison to positive controls (enzyme, buffer and substrate in the absence of inhibitor). IC50 values were then determined using FitCurve (Excel Tessella Stats add-in).
These were estimated using the following equation: IC50=(Ki*[…], where S is the substrate concentration and Km the Michaelis-Menton coefficient. Serine Protease Assays

Test [3] concerns the target T2, catalytic domain human MMP-14 (Homo sapiens, UniProt P50281).
T2 construct: made in house
The experiment in a line: MMP-14 fluorogenic inhibition assay. Particulars: read-out: Calculated Ki(nM) MMP-14. The protocol:
All enzymes were pre-activated at 37° C. with aminophenylmercuric acetate (APMA) or trypsin before being made up to the final concentrations used in the assay. MMP-1 (30 nM) was activated with 0.93 mM APMA for 20 minutes, MMP-2 (30 nM) was activated with 1.32 mM APMA for 1 hour, MMP-3 (1010 nM) was activated with 1.81 mM APMA for 3 hours or heat activated at 55° C. for three hours, MMP-9 (100 nM) was activated with 2 mM APMA for 2 hours, human MMP-13 (100 nM) was activated with 2 mM APMA for 2 hours, and MMP-14 (900 nM) was activated with 0.9 ng/ml trypsin for 25 minutes, followed by the addition of 4.5 ng/ml trypsin inhibitor.
For MMP-1, the assay buffer used was 50 mM Tris, 200 mM NaCl, 5 mM CaCl2, 20 μM ZnCl2, 0.05% (w/v) Brij 35, pH 7.5. […] For MMP-13, the assay buffer used was 50 mM Tris, pH 7.5, 200 mM NaCl, 5 mM CaCl2, […] and 0.02% (w/v) Brij 35. For MMP-14, the assay buffer used was 50 mM Tris, 100 mM NaCl, 10 mM CaCl2, 0.25% (w/v) Brij 35, pH 7.5.
MMP-14 inhibition was assayed by incubating activated catalytic domain human MMP-14 at 1 nM in assay buffer with 10 μM Mca-Pro-Leu-Gly-Leu-Dpa-Ala-Arg-NH2 and six concentrations of inhibitor. The incubation was performed at 37° C. for 60 minutes.
The final assay concentrations of inhibitors used in the MMP-1 assays to determine Ki were 50, 40, 30, 20, 10 and 5 μM. For MMP-2, the final assay concentrations of inhibitors used were 1000, 800, 600, 400, 200 and 100 nM. For MMP-3, the final assay concentrations of inhibitors used were 5, 4, 3, 2, 1 and 0.5 nM. For MMP-9 and MMP-14, the final assay concentrations of inhibitors used were 5, 4, 3, 2, 1 and 0.5 μM.
All assays were carried out in a black 96-well plate with a final volume of 100 μl in each well. Inhibitors were dissolved in dimethylsulphoxide (DMSO) to 1 mM. […] For MMP-2, MMP-3, MMP-9 and MMP-14, fluorescence was read every 2 minutes at […] and 393 nm γem for 1 hour using a Fluorostar fluorimeter (BMG) with BIOLISE software. For MMP-1 assays, the filters used were 355 nm γex and 440 nm γem; fluorescence was read every 2 minutes for 1 hour. […]

The next test concerns the target T3, MMP-3 (Homo sapiens, UniProt P08254).
T3 construct: made in house
The experiment in a line: Reduction of MMP-3-catalysed degradation of KGF-2. Particulars: MMP-3 / KGF-2, read-out: Percentage inhibition of proteolysis.

The target of test [4] is T1, MMP-13. The experiment in a line: Reduction of MMP-13-catalysed degradation of KGF-2. The following applies: MMP-13 / KGF-2, read-out: Percentage inhibition of proteolysis.

T3 sequence (P08254 100-272 limits assumed): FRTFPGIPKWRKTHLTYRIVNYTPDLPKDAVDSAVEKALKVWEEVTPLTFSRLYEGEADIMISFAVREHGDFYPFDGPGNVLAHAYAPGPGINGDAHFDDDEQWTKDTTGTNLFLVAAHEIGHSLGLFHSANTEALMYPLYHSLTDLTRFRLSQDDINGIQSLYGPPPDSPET
Sequence of catalytic domain of human MMP-2 (P08253 with tags, fused parts or gaps DEL222-396 limits assumed): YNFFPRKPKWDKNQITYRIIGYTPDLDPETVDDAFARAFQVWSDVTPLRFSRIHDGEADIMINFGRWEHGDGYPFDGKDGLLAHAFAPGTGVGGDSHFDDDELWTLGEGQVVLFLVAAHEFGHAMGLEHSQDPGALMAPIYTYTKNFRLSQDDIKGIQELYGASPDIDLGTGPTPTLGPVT

By Ki is commonly meant the equilibrium dissociation constant of an inhibitor or competing ligand from its target. Broadly, the inhibition is the change of the read-out against control, counted positive when it falls. Turning to `COC[C@@H](NC(=O)[C@@H](NC(=O)[C@H](CCCc1ccc(-c2cccc(OC)c2)c(C)c1)CC(=O)O)C(C)(C)C)c1ccccc1` [compound 9454, (3R)-3-({[(1S)-2,2-Dimethyl-1-({[(1S)-2-methoxy-1-phenylethyl]amino}carbonyl)propyl]amino}carbonyl)-6-(3′-methoxy-2-methylbiphen-4-yl)hexanoic acid], the Ki was 35200 nM in test [1], 857 nM on MMP-13 [2] and 35500 nM in test [3]. The results for the inhibition at 0.1 µM on MMP-3 (inhibitor 0.1 μM) and on MMP-13 [4] (inhibitor 0.1 μM) were 45% and 1.6%, respectively. Moreover, the figures for the inhibition at 1 µM at MMP-3 (inhibitor 1 μM) and at MMP-13 [4] (inhibitor 1 μM) were 30% and 10%, respectively. Also, the inhibition at 10 µM was determined as 62% on MMP-3 (inhibitor 10 μM) and 23.7% at MMP-13 [4] (inhibitor 10 μM). In addition, the inhibition at 100 µM at MMP-3 (inhibitor 100 μM) came out at 68%; at MMP-13 [4] (inhibitor 100 μM), 82.9%.
